Consider 9 compounds from patent US8143282B2, “Heterocyclic compounds” (S*BIO Pte Ltd., priority 2005, dated 2012).

Data set [1] deals with T1, HDAC1 enzyme (Homo sapiens, UniProt Q13547).
T1 construct: Amplification of human HDAC1 coding region from this cDNA library was cloned separately into the baculovirus expression pDEST20 vector; made in house; host or cells: SF9 insect cells, pDEST20-HDAC1 baculovirus
In words: In vitro HDAC assay for determination of IC50 values (BIOMOL fluorescent-based HDAC activity assay). Type of data set: biochemical. The procedure, abridged: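 Recombinant GST-HDAC1, cloned from SW620 cDNA and expressed in Sf9 cells, tested in a fluorogenic Fluor de Lys deacetylase assay. Developer was added for 10 min and fluorescence read at 360/460 nm. IC50 came from concentration series.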

Data set [2] concerns Colo205 cells. The experiment in a line: Cell-based proliferation assay for GI50 (CyQUANT), Colo205. Conditions: Homo sapiens, COLO 205, 96 h treatment, read-out: Cellular or Growth Inhibition Activity in Colo205 cells, GI50. In a few lines:
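Cells were seeded at 1000 (PC3), 5000 (Colo205), 6000 (HCT116) or 4000 (HEP3B) per well and left 24 h at 37° C. Compound treatment lasted 96 h. Growth was read by CyQUANT, and GI50 (50% growth inhibition) came from dose-response curves.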

The subject of data set [3] is HCT116. The experiment in a line: Cell-based proliferation assay for GI50 (CyQUANT), HCT116. Particulars: Homo sapiens, HCT-116; HCT116, 96 h treatment; read-out: Cellular or Growth Inhibition Activity, GI50, HCT116. The protocol: (§1) Human colon cancer cell lines (Colo205, HCT116), Ovarian cancer cell line (A2780), Hepatoma cell line (HEP3B), Prostate cancer cell line (PC3) were obtained from ATCC or ECACC. Colo205 cells were cultivated in RPMI 1640 containing 2 mM L-Glutamine, 5% FBS, 1.0 mM Na Pyruvate, 1 U/ml of penicillin and 1 μg of streptomycin. HCT116 cells were cultivated in McCoy's containing RPMI 1640 containing 2 mM L-Glutamine, 5% FBS, 1 U/ml of penicillin and 1 μg of streptomycin. A2780 cells were cultivated in RPMI 1640 containing 2 mM L-Glutamine, 5% FBS, 1 U/ml of penicillin and 1 μg of streptomycin. HEP3B cells were cultivated in EMEM containing 2 mM L-glutamine, 5% FBS, 1% non essential amino acid, 1 mM Na Pyruvate, 1 U/ml of penicillin and 1 μg of streptomycin. PC3 cells were cultivated in F12K, 2 mM L-glutamine, 5% FBS, 1 U/ml of penicillin and 1 μg of streptomycin. PC3, Colo205, and HCT116 cells were seeded in 96-wells plate at 1000, 5000 and 6000 cells per well respectively. A2780 and HEP3B cells were seeded in 96-wells plate at 4000 cells per well respectively. The plates were incubated at 37° C., 5% CO2, for 24 h. Cells were treated with compounds at various concentrations for 96 h. Cell growth was then monitored using CyQUANT® cell proliferation assay (Invitrogen Pte Ltd). Dose response curves were plotted to determine GI50 values for the compounds using XL-fit (ID Business Solution, Emeryville, Calif.). GI50 is defined as the concentration of compound required for 50% inhibition of cell growth.

In data set [4] the test system is A2780. In words: Cell-based proliferation assay for GI50 (CyQUANT), A2780. Conditions: Homo sapiens; A2780, 96 h treatment; read-out: Cellular or Growth Inhibition Activity, GI50, A2780. The procedure: as §1
Data set [5] concerns PC3. The experiment in a line: Cell-based proliferation assay for GI50 (CyQUANT), PC3. Particulars: Homo sapiens, PC-3; PC3, 96 h treatment; read-out: Cellular or Growth Inhibition Activity, GI50, PC3. The procedure: as §1
The test system of data set [6] is HEP3B. In words: Cell-based proliferation assay for GI50 (CyQUANT), HEP3B. Particulars: Homo sapiens, 96 h treatment, read-out: Cellular or Growth Inhibition Activity, GI50, HEP3B. The procedure:
as §1

The nature of data set [7]: Measurement of microsomal stability. Type of data set: in vitro ADME. Particulars: pooled human liver microsomes, pH 7.4; human liver microsome, 5 μM test compound, 1.0 mg/ml microsomal protein. The procedure:
Metabolic stability measurements in the in vitro using liver microsomes aids in the prediction of the in vivo hepatic clearance and the compound stability towards phase I biotransformation reactions mediated by P450 isozymes.
Pooled human liver microsome (HLM was purchased from BD Gentest (BD BioSciences). The incubations consisted of test compound (5 μM) or control compound (Verapamil), NADPH-generating system solution A (25 mM NADP^+, 66 mM glucose-6-phosphate, 66 mM MgCl2 in H2O), NADPH-generating system solution B (40 U/ml glucose-6-phosphate dehydrogenase in 5 mM sodium citrate) and 1.0 mg/ml microsomal protein, respectively, in 100 mM potassium phosphate buffer (pH 7.4). Samples were incubated for 0, 5, 15, 30, 45, 60 min. Reaction was terminated with ice-cold 80% acetonitrile and 20% DMSO. Samples were subsequently centrifuged at 4° C. for 15 min at 2,000 rpm. 100 μL of the supernatant was transferred to the LC-MS Plate for analysis. Before quantitative analysis, the compound was tuned in LC/MS machine to get the optimized MS condition. Liquid chromatography was performed on a Luna C18 column (Phenomenex U.S.A, Torrance, Calif.) (2×50 mm, 5 μM). % of the compound remaining (by area) at each time point is calculated with respect to time 0 min. Plot % remaining against time (min) to obtain the curve and use the Prism software to obtain the t1/2.

A short description of data set [8]: In vivo pharmacokinetic (PK) studies. Conditions: mouse, plasma, po; mice, hydrochloric acid salt form (2HCl), 50 mg/kg. The protocol: Compound was dissolved in appropriate solution (saline or DMA and Cremaphor in saline) at 1 mg/ml for intravenous (IV) administration, or in 0.5% methyl cellulose, 0.1% Tween 80 in water at 5 mg/ml for oral administration. Mice were randomized according to body weight, grouped three per time point. Mice were administered single IV dose (10 mg/kg) via tail vein, or single oral dose (50 mg/kg) via gavage. At pre-defined time points (predose, 5 or 10, 30 min, 1, 2, 4, 8, and 24 h), one group of mice was sacrificed by overdose CO2 and blood samples were collected by cardiac puncture. The blood samples were centrifuged immediately for 10 min at 3000 rpm to separate plasma, and plasma was kept frozen at −80° C. until analysis by LC/MS/MS. Before sample analysis, the method was developed for LC/MS/MS assay. The method was validated for signal-response of the calibration standards, auto-sampler stability for ˜15 hours intra-day and inter-day calibration curve using eight calibration standards excluding the blank plasma. QC samples at three different concentrations in triplicates were prepared to determine the accuracy and precision. The extracted QC samples were compared to unextracted samples to determine the extraction efficiency of the analyte. LLOQ was determined by using triplicate samples of 1 ng/mL and 2 ng/mL to obtain accuracy and precision at the low end. Samples were analysed using the validated method. Data was analyzed by the non-compartmental model using WinNolin 4.0 software (Pharsight, Mountain View, Calif., USA). The mean values for the plasma compound concentration-time profiles were used in mouse PK study.
The PK parameter AUC0-last providing the information on the overall exposure of the drug in vivo is one of the key PK/PD parameters that helps in predicting the efficacy of an anti-cancer compound. The higher the AUC value, the better will be the in vivo efficacy of the compound at similar in vitro potency.

Data set [9] has as its system acetylated histone H3. In words: Histone H3 acetylation assay (immuno-blotting) in Colo205 cells. Type of data set: cell-based, Human. Conditions: 10 μM, 24 h, western-blot. The procedure: A hallmark of histone deacetylase (HDAC) inhibition is the increase in the acetylation level of histones. Histone acetylation, including H3, H4 and H2A can be detected by immuno-blotting (western-blot). Colo205 cells, approximately 5×10^5 cells, were seeded in the previously described medium, cultivated for 24 h and subsequently treated with HDAC inhibitory agents and a positive control at a final concentration of 10 μM. After 24 h, cells were harvested and lysed according to the instruction from Sigma Mammalian Cell Lysis Kit. The protein concentration was quantified using BCA method (Sigma Pte Ltd). The protein lysate was separated using 4-12% bis-tris SDS-PAGE gel (Invitrogen Pte Ltd) and was transferred onto PVDF membrane (BioRad Pte Ltd). The membrane was probed using primary antibody specific for acetylated histone H3 (Upstate Pte Ltd). The detection antibody, goat anti rabbit antibody conjugated with HRP was used according to the manufacturing instruction (Pierce Pte Ltd). After removing the detection antibody from the membrane, an enhanced chemiluminescent substrate for detection of HRP (Pierce Pte Ltd) was added onto the membrane. After removing the substrate, the membrane was exposed to an X-ray film (Kodak) for 1 sec-20 mins. The X-ray film was developed using the X-ray film processor. The density of each band observed on the developed film could be qualitatively analyzed using UVP Bioimaging software (UVP, Inc, Upland, Calif.). The values were then normalized against the density of actin in the corresponding samples to obtain the expression of the protein.

T1 sequence (Q13547 whole entry): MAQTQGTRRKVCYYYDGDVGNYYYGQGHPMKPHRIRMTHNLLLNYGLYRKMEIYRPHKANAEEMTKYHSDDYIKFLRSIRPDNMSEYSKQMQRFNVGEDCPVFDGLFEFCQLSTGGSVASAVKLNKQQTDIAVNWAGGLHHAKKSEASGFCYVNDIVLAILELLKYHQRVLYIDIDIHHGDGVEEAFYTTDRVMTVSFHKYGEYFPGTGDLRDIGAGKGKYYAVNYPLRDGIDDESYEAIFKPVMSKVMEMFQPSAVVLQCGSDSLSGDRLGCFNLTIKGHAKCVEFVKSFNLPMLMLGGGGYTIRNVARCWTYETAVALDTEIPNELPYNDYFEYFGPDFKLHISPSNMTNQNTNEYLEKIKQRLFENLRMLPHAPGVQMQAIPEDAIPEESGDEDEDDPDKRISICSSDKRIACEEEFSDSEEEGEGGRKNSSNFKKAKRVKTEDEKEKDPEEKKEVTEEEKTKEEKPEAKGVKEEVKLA

What is called IC50 is the concentration that gives 50% inhibition. A higher IC50 goes with weaker potency. Broadly, the GI50 is the concentration giving 50% growth inhibition. The term half-life denotes the time in which the quantity being followed falls by half. Low values mean fast loss, high ones slow loss. As usually defined, the AUC(0-t) is exposure summed from dosing to a finite time, without extrapolation to infinity. With `CN(C)CC(C)(C)Cn1c(CC(C)(C)C)nc2cc(/C=C/C(=O)NO)ccc21` [Compound 1, 3-[1-(3-Dimethylamino-2,2-dimethyl-propyl)-2-(2,2-dimethyl-propyl)-1H-benzoimidazol-5-yl]-N-hydroxy-acrylamide], the IC50 in data set [1] amounted to 42 nM. The concentration for 50% growth inhibition (GI50) in data set [2] is 500 nM; in [3], 500 to 1000 nM; in data set [4], less than 500 nM; in data set [5] it was less than 500 nM; in [6], 500 to 1000 nM. Besides, the half-life at 5 μM in data set [7] is more than 30 min. Besides, in [8], the exposure AUC(0-t) came to 1870 ng·h/mL.

In data set [1], `CCCCc1nc2cc(/C=C/C(=O)NO)ccc2n1CCN(CC)CC` [Compound 8, 3-[2-Butyl-1-(2-diethylamino-ethyl)-1H-benzoimidazol-5-yl]-N-hydroxy-acrylamide] came in with an IC50 of 52 nM. In addition, the GI50 in data set [2] was 560 nM; in data set [3], 500 to 1000 nM; in data set [4] it was 500 to 1000 nM; in data set [5], less than 500 nM; in data set [6] it was 1000 to 5000 nM. For the same compound, the half-life at 5 μM in [7] is more than 30 min. For the same compound, the AUC(0-t) in data set [8] amounted to 1840 ng·h/mL.

`CCCCc1nc2cc(/C=C/C(=O)NO)ccc2n1CCNC(C)C` [Compound 46, 3-[2-Butyl-1-(2-isopropylamino-ethyl)-1H-benzoimidazol-5-yl]-N-hydroxy-acrylamide] returned an IC50 in [1] of 49 nM. Moreover, the GI50 was 480 nM in [2]; less than 500 nM in data set [3]; less than 500 nM in [4]; less than 500 nM in data set [5]; 500 to 1000 nM in data set [6]. This compound registered a half-life at 5 μM in data set [7] of more than 30 min.

With `CCCCCCc1nc2cc(/C=C/C(=O)NO)ccc2n1CCN(C)C` [Compound 58, 3-[1-(2-Dimethylamino-ethyl)-2-hexyl-1H-benzoimidazol-5-yl]-N-hydroxy-acrylamide], inhibition in data set [1] was half-maximal at 30 nM (IC50). For the same compound, the GI50 in [2] is 380 nM; in [3] it was less than 500 nM; in data set [4] it was less than 500 nM; in data set [5], less than 500 nM; in data set [6], less than 500 nM. For the same compound, the half-life at 5 μM in [7] was more than 30 min.

Turning to `CCNCCn1c(CCC(C)(C)C)nc2cc(/C=C/C(=O)NO)ccc21` [Compound 63, 3-[1-(2-ethylamino-ethyl)-2-(3,3-dimethyl-butyl)-1H-benzoimidazol-5-yl]-N-hydroxy-acrylamide], the midpoint of inhibition in data set [1], the IC50, lay at 51 nM. For the same compound, in data set [2], the GI50 turned out to be 540 nM. Also, in data set [9], the “Histone Acetylation activities (Histone-3)” value is listed as “Active”. This compound had a half-life at 5 μM in [7] of more than 30 min.

The compound `CCCCCc1nc2cc(/C=C/C(=O)NO)ccc2n1CCNCC` [Compound 68, 3-[1-(2-Ethylamino-ethyl)-2-pentyl-1H-benzoimidazol-5-yl]-N-hydroxy-acrylamide] gave a half-maximal inhibitory concentration (IC50) in [1] of 34 nM. Moreover, the GI50 in data set [2] turned out to be 520 nM. The “Histone Acetylation activities (Histone-3)” value in [9] is reported as “Active”. The same compound showed a half-life at 5 μM in data set [7] of more than 30 min.

Regarding `CCCCCc1nc2cc(/C=C/C(=O)NO)ccc2n1CCNC(C)C` [Compound 71, N-Hydroxy-3-[1-(2-isopropylamino-ethyl)-2-pentyl-1H-benzoimidazol-5-yl]-acrylamide], in [1], half-maximal inhibition (IC50) required 40 nM. Also, the GI50 in data set [2] was 240 nM; in data set [3], less than 500 nM; in [4] it was less than 500 nM; in [5], less than 500 nM. Also, the “Histone Acetylation activities (Histone-3)” value in [9] was “Active”. In addition, in data set [7], the half-life at 5 μM was more than 30 min.

For `CCCCCCc1nc2cc(/C=C/C(=O)NO)ccc2n1CCNC` [Compound 74, 3-[2-Hexyl-1-(2-methylamino-ethyl)-1H-benzoimidazol-5-yl]-N-hydroxy-acrylamide], half-maximal inhibition in [1] (IC50) required 28 nM. Moreover, in [2], the GI50 came out at 550 nM. Besides, the “Histone Acetylation activities (Histone-3)” value in data set [9] is listed as “Active”. In [7], this compound showed a half-life at 5 μM of more than 30 min.

For the compound `CCN(CCn1cnc2cc(/C=C/C(=O)NO)ccc21)CCC(C)(C)C` [Compound 111, 3-(1-{2-[(3,3-Dimethyl-butyl)-ethyl-amino]-ethyl}-1H-benzoimidazol-5-yl)-N-hydroxy-acrylamide], it took 29 nM to reach half-maximal inhibition in data set [1] (IC50). Also, the results for the GI50 in [2] and in [6] were 210 nM and less than 500 nM, respectively.
